≈ marks a conversion by molar mass, not a printed value. Like-named read-outs stand apart in the source and are kept apart here.
Tests used:
[1] = UV-measured solubility of 5-HTP and carbidopa; type: physicochemical
Method: The individual solubility of 5-HTP and carbidopa was assessed and compared to the data in the literature.
Table 2. Solubility results

[2] = Second wave of solubility testing with acidified vehicles and combinations; type: physicochemical; settings: 40% (w/v) HP-3-cyclodextrin + 38.4 mg/mL citric acid, pH2.0, compared to similar solution containing only 20% (w/v) HP-3-cyclodextrin
Method: Based on the outcome of these solubility tests, a second wave of solubility testing was performed, with acidified vehicles and combinations thereof.
The highest solubility was obtained in 40% (w/v) HP-3-cyclodextrin + 38.4 mg/mL citric acid, pH2.0, for both APIs (Active Pharmaceutical Ingredients). The marginal increase in solubility in this vehicle, compared to similar solution containing only 20% (w/v) HP-3-cyclodextrin is only -20% for 5-HTP and -40% for carbidopa. Therefore, and since dosing of HP-3-cyclodextrin is limited to about 8 - 16 g/day (for max. 14 days, short-term Phase I studies), it was foreseen to use the vehicle containing only 20% HP-b-cyclodextrin as the first choice for dosing safety reasons, i.e.: • for a 600 mg 5-HTP/60 mg carbidopa dose with a 30 mg/mL 5-HTP/3 mg/mL carbidopa solution in solvent A (40% HP-β-CD), 20 mL solution is required, corresponding with an intake of 8 g HP-β-CD, and; • for a 600 mg 5-HTP/60 mg carbidopa dose with a 30 mg/mL 5-HTP/3 mg/mL carbidopa solution in solvent B (20% HP-β-CD), 20 mL solution is required, corresponding with an intake of only 4 g HP-β-CD.

[3] = Screening stress test study on separate reference solutions and a mix solution; type: physicochemical
Method: Stress studies were performed on the separated reference solutions and a mix solution under heat (60°C for 24 h), and under acidic, basic, or oxidative (H2O2) conditions, and ICH light (700 W/m^2 for 8 h) conditions.

[4] = cited from earlier work
[5] = 0.1N HCl, simulated gastric fluid, 0.1N HCI
[6] = 5% Soluplus in water, aqueous with cosolvent or surfactant or cyclodextrin
[7] = 10% w/v M-β-cyclodextrin in water (Kleptose crysmeb), aqueous with cosolvent or surfactant or cyclodextrin
[8] = 20% w/v HP-β-cyclodextrin in water (Kleptose), aqueous with cosolvent or surfactant or cyclodextrin, 20% w/v HP-β-cydodextrin in water (Kleptose)
[9] = Ethanol, organic solvent or mixture
[10] = Kolliphor RH40 (5% in water), aqueous with cosolvent or surfactant or cyclodextrin
[11] = PEG400, organic solvent or mixture
[12] = Polysorbate 20 (5% in water), aqueous with cosolvent or surfactant or cyclodextrin
[13] = Propylene glycol, organic solvent or mixture
[14] = Sepiclear (5% in water), aqueous with cosolvent or surfactant or cyclodextrin
[15] = Solutol HS15 (5% in water), aqueous with cosolvent or surfactant or cyclodextrin
[16] = Transcutol HP, organic solvent or mixture
[17] = oil or lipid, Labrafac lipophile, accurate measurement not possible due to diverging spectrum
[18] = oil or lipid, Sunflower oil, accurate measurement not possible due to diverging spectrum
[19] = pH 5, aqueous buffer, Phosphate buffer, pH5
[20] = pH 6.8, aqueous buffer, Phosphate buffer, pH6.8
[21] = pH 9, aqueous buffer, Phosphate buffer, pH9
[22] = separate solution, ICH light (700 W/m^2 for 8 h)
[23] = separate solution, acidic conditions, immediate, no further degradation after 24 h
[24] = separate solution, basic medium, after 24 h
[25] = separate solution, heat (60°C for 24 h)
[26] = separate solution, oxidative (H2O2) stress, T0 and T24h

solubility [1, 5] | solubility [1, 6] | solubility [1, 7] | solubility [1, 8] | solubility [1, 9] | solubility [1, 10] | solubility ([1]; Labrasol ALF, oil or lipid) | solubility [1, 11] | solubility [1, 12] | solubility [1, 13] | solubility [1, 14] | solubility [1, 15] | solubility [1, 16] | solubility [1, 17] | solubility [1, 18] | solubility [1, 19] | solubility [1, 20] | solubility [1, 21] | marginal increase in solubility [2] | degradation [3, 22] | Structure (SMILES) | also measured
29400 µg/mL (≈ 133 mM) | 12400 µg/mL (≈ 56.3 mM) | 13500 µg/mL (≈ 61.3 mM) | 17000 µg/mL (≈ 77.2 mM) | 5100 µg/mL (≈ 23.2 mM) | 9500 µg/mL (≈ 43.1 mM) | 4800 µg/mL (≈ 21.8 mM) | 2300 µg/mL (≈ 10.4 mM) | 9400 µg/mL (≈ 42.7 mM) | 35400 µg/mL (≈ 161 mM) | 14500 µg/mL (≈ 65.8 mM) | 9000 µg/mL (≈ 40.9 mM) | 13700 µg/mL (≈ 62.2 mM) | < 10000 µg/mL | < 10000 µg/mL | 8400 µg/mL (≈ 38.1 mM) | 8900 µg/mL (≈ 40.4 mM) | 9300 µg/mL (≈ 42.2 mM) | -20% | about 15% | N[C@@H](Cc1c[nH]c2ccc(O)cc12)C(=O)O [5-HTP, (2S)-2-amino-3-(5-hydroxy-1H-indol-3-yl)propanoic acid] | degradation ([3]; mix solution of 5-HTP and carbidopa, all stress conditions): mainly light and acidic stress influenced the degradation; degradation [3, 23]: not sensitive; degradation [3, 24]: about 15%; degradation [3, 25]: not sensitive; degradation [3, 26]: not sensitive; solubility ([4]; Water): 1 - 10^(1) mg/mL
11800 µg/mL (≈ 52.2 mM) | 12900 µg/mL (≈ 57 mM) | 2800 µg/mL (≈ 12.4 mM) | 3100 µg/mL (≈ 13.7 mM) | 70 µg/mL (≈ 0.309 mM) | 1500 µg/mL (≈ 6.63 mM) | 12800 µg/mL (≈ 56.6 mM) | 1500 µg/mL (≈ 6.63 mM) | 1400 µg/mL (≈ 6.19 mM) | 15000 µg/mL (≈ 66.3 mM) | 3100 µg/mL (≈ 13.7 mM) | 1400 µg/mL (≈ 6.19 mM) | 600 µg/mL (≈ 2.65 mM) | < 10000 µg/mL | < 10000 µg/mL | 1500 µg/mL (≈ 6.63 mM) | 2100 µg/mL (≈ 9.28 mM) | 4700 µg/mL (≈ 20.8 mM) | -40% | about 88% | C[C@@](Cc1ccc(O)c(O)c1)(NN)C(=O)O [Carbidopa, (2S)-3-(3,4-dihydroxyphenyl)-2-hydrazinyl-2-methylpropanoic acid] | degradation [3, 23]: more than 20%; degradation [3, 24]: about 30%; degradation [3, 25]: 90%; degradation [3, 26]: did not influence; stability in solution ([3]; stress studies, overall): very unstable in solution and is quickly degraded; solubility ([4]; 3N HCI): 100 - 1000 ^(3) mg/mL; solubility ([4]; Acetone): < 0.1 ^(3) mg/mL; solubility ([4]; Chloroform): < 0.1 ^(2) mg/mL; solubility ([4]; Ethanol): 0.1 - 1 ^(2) mg/mL; solubility ([4]; Ether): < 0.1 ^(3) mg/mL; solubility ([4]; Methanol): 1 - 10 ^(3) mg/mL; solubility ([4]; Methylene chloride): < 0.1 ^(3) mg/mL; solubility ([4]; Water): 1 - 10 ^(2) mg/mL
